Consider eight molecules from patent US5100797A, “Fucosidase inhibitors” (priority 1989, dated 1992).

SMILES strings stand for the structures.

One series relates to α-glucosidase. The settings on record: Kite et al. 1988; cited from earlier work.
In series [1] the test system is mammalian α-L-fucosidases. To be noted: background statement; cited from earlier work.
Series [2] deals with T1, human liver α-L-fucosidase (Homo sapiens, UniProt P04066).
T1 construct: The resultant supernatant was used as the source of human glycosidases; from tissue; host or cells: post-mortem human liver, 37,000 g supernatant of homogenate
T1 sequence (P04066 32-466): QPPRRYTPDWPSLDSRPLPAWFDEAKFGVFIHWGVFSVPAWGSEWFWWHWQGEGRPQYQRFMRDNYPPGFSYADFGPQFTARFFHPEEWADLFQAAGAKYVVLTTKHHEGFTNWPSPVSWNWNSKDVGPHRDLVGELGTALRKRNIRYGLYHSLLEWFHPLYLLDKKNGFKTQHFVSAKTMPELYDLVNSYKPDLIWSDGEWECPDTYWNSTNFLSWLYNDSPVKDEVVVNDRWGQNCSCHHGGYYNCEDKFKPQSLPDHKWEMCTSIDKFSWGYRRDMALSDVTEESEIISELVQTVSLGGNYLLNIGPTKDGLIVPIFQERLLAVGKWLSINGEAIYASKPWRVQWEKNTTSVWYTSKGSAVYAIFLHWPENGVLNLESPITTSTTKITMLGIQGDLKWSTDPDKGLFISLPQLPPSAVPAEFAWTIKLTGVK
As to the kind of experiment: Inhibition of human liver α-L-fucosidase (4-umbelliferyl glycoside substrate, Dixon plot). It is filed as biochemical. The settings on record: for fucosidase inhibition, in words: human liver α-L-fucosidase; for Ki: human liver extract, 4-umbelliferyl substrate 0.5 mM, Dixon graphical procedure. Here is the method:
Post-mortem human liver, which had been stored at -20° C. until required was homogenized in deionized water (50%, w/v) in a Potter-Elvehjem homogenizer and then centrifuged at 37,000 g for 30 min in an MSE 18 centrifuge. The resultant supernatant was used as the source of human glycosidases.
The specificity of the inhibitors was determined by assaying the glycosidases in the presence of and absence of a 1 mM solution of each compound. […] The Lineweaver-Burk graphical procedure and secondary plots of the slope against inhibitor concentration were used to determine the nature of inhibition and the values of Ki for these activities.

The nature of a further series: pKa of inhibitors. It is filed as physicochemical.
For another series, the target named is T2, β-D-galactosidase (Homo sapiens, UniProt P16278).
T2 construct: 4-umbelliferyl glycoside substrate
T2 sequence (P16278 29-677): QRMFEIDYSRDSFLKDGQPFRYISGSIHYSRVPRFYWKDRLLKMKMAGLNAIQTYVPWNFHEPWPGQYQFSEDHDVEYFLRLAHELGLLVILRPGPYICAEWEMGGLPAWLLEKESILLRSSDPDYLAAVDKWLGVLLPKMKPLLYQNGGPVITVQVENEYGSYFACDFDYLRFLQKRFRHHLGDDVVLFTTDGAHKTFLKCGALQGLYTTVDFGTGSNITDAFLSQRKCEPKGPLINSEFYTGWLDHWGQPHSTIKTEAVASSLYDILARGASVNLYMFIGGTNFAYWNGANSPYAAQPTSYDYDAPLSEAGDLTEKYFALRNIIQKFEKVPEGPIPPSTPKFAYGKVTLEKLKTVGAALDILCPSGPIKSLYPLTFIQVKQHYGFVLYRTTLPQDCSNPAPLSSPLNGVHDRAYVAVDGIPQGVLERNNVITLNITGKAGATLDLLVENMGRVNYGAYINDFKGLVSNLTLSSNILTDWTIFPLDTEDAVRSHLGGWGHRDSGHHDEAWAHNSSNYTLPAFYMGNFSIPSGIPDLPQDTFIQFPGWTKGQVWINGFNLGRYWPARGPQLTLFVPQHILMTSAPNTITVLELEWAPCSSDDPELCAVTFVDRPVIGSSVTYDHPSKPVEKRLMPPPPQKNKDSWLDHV
As to the kind of experiment: Glycosidase specificity in human liver extract: β-D-galactosidase. The format is biochemical. The settings on record: read-out: Other specificities (% inhibition at 1 mM): β-D-galactosidase, 1 mM compound. How it is done: (§1) Post-mortem human liver, which had been stored at -20° C. until required was homogenized in deionized water (50%, w/v) in a Potter-Elvehjem homogenizer and then centrifuged at 37,000 g for 30 min in an MSE 18 centrifuge. The resultant supernatant was used as the source of human glycosidases. A lyophilized extract of liver from Charonia lampas was obtained from Seikagaku Kogyo Co., Japan for the isolation of α-L-fucosidase by the published procedure of Iijima and Egami, J. Biochem. 70, 75-78 (1971).
(§2) The glycosidase activities in an extract of human liver were assayed by using the appropriate fluorigenic 4-umbelliferyl glycoside substrate (Koch-Light, Haverhill, Suffolk, U.K.) with a concentration of 0.5 mM at the optimal pH for each enzyme [Burditt et al., Biochem. J. 189, 467-473 (1980)]. The specificity of the inhibitors was determined by assaying the glycosidases in the presence of and absence of a 1 mM solution of each compound. The nature of the inhibition of human α-L-fucosidase, the value of Ki determined by using the Dixon graphical procedure and the effect of pH on the inhibition were investigated as described previously by Al Daher et al., Biochem. J. 258, 613-615 (1989). […]

Series [3] concerns the target T3, Bovine epididymal α-L-fucosidase (Bos taurus, UniProt Q2KIM0).
T3 construct: Bovine epididymal and Charonia lampas α-L-fucosidase were assayed; from tissue; host or cells: bovine epididymis
T3 sequence (Q2KIM0 23-468): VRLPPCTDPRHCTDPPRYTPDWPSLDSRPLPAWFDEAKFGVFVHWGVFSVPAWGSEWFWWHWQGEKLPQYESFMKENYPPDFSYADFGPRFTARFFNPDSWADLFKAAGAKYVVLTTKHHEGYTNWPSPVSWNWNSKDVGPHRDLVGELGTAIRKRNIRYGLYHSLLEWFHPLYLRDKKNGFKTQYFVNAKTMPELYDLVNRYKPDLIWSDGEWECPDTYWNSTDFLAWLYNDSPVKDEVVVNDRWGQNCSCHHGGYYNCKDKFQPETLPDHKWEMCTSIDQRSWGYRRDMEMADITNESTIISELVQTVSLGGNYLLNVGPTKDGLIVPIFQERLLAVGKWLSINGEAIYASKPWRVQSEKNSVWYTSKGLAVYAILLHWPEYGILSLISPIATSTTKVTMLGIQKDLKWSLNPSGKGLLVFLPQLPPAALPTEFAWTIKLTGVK
As to the kind of experiment: Inhibition of bovine epididymal α-L-fucosidase (Lineweaver-Burk). It is filed as biochemical. To be noted: para-nitrophenyl-α-L-fucopyranoside; phosphate-citrate buffer pH 6.0; read-out: Ki (M) Bovine epididymis α-L-fucosidase. How it is done: (§3) The glycosidase activities in an extract of human liver were assayed by using the appropriate fluorigenic 4-umbelliferyl glycoside substrate (Koch-Light, Haverhill, Suffolk, U.K.) with a concentration of 0.5 mM at the optimal pH for each enzyme [Burditt et al., Biochem. J. 189, 467-473 (1980)]. The specificity of the inhibitors was determined by assaying the glycosidases in the presence of and absence of a 1 mM solution of each compound. The nature of the inhibition of human α-L-fucosidase, the value of Ki determined by using the Dixon graphical procedure and the effect of pH on the inhibition were investigated as described previously by Al Daher et al., Biochem. J. 258, 613-615 (1989). Bovine epididymal and Charonia lampas α-L-fucosidase were assayed using para-nitrophenyl-α-L-fucopyranoside as substrate in phosphate-citrate buffer (McIlvaine), pH 6.0, and 0.005 M-sodium acetate buffer, pH 4.5 containing 0.15 M NaCl, respectively. The Lineweaver-Burk graphical procedure and secondary plots of the slope against inhibitor concentration were used to determine the nature of inhibition and the values of Ki for these activities.

Series [4] deals with Charonia lampas α-L-fucosidase. As to the kind of experiment: Inhibition of Charonia lampas α-L-fucosidase (Lineweaver-Burk). The format is biochemical. The settings on record: para-nitrophenyl-α-L-fucopyranoside; sodium acetate buffer pH 4.5, 0.15 M NaCl; read-out: Ki (M) C. lampas α-L-fucosidase. How it is done: as §1, §3
The subject of series [5] is N-acetyl-β-D-hexosaminidase. Kind of series: Glycosidase specificity in human liver extract: N-acetyl-β-D-hexosaminidase. The format is biochemical. To be noted: 1 mM compound. How it is done: as §1, §3
Another series addresses T4, α-D-mannosidase (Homo sapiens, UniProt O00754).
T4 construct: The resultant supernatant was used as the source of human glycosidases; from tissue; host or cells: post-mortem human liver, 37,000 g supernatant of homogenate
T4 sequence (O00754 50-601 limits assumed): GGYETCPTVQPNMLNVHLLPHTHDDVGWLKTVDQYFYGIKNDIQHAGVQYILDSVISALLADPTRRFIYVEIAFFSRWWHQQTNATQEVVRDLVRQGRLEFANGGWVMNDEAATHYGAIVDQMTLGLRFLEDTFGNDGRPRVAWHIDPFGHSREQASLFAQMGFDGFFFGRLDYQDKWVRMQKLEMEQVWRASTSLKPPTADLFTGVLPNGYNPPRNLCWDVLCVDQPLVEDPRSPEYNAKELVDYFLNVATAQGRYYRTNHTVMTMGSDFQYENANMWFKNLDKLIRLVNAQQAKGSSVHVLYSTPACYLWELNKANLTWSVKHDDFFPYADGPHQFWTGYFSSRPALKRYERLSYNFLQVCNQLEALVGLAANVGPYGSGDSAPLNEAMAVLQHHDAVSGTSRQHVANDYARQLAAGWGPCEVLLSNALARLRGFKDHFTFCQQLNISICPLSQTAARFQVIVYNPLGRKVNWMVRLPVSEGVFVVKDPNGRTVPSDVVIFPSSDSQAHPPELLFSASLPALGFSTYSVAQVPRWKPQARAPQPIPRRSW
T4 sequence (O00754 602-882 limits assumed): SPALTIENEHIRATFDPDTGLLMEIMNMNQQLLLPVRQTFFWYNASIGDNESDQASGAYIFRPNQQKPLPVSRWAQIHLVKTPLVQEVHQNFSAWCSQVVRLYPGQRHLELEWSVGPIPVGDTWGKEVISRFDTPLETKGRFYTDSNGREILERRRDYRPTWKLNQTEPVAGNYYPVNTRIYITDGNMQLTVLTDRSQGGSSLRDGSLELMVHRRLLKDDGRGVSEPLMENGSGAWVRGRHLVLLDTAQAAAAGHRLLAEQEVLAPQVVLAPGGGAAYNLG
T4 sequence (O00754 883-1011 limits assumed): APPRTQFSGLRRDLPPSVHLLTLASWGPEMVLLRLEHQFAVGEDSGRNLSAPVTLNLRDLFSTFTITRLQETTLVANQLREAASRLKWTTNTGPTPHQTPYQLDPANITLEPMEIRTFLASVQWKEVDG
Kind of series: Glycosidase specificity in human liver extract: α-D-mannosidase. It is filed as biochemical. How it is done:
as §1, §2

For the molecule `OC[C@H]1NC[C@H](O)[C@@H](O)[C@@H]1O` [Compound 1, deoxynojirimycin], in the series with α-glucosidase, the “inhibition of α-glucosidase activity, in words” value was “potent inhibitors of α-glucosidase activity”.

As to `OC[C@H]1N[C@H](CO)[C@@H](O)[C@H](O)[C@H]1O` [Compound 2, α-homonojirimycin], the “inhibition of α-glucosidase activity, in words” value in the series with α-glucosidase is on record as “potent inhibitors of α-glucosidase activity”.

Take `C[C@@H]1NC[C@@H](O)[C@H](O)[C@@H]1O` [Compound 4, 1,5-Dideoxy-1,5-imino-L-fucitol]: the “inhibition of mammalian α-L-fucosidases, in words” value in series [1] is “very powerful and highly specific inhibitor”.

One may read the pKa as the pH at which an ionisable group is half protonated. Read a low pKa as a stronger acid or weaker base. What is called inhibition is the share of the control response that was lost under treatment. A word on the Ki: it is a dissociation constant, usually derived from enzyme kinetics or from competition with a known ligand. With `C[C@@H]1N[C@H](CO)[C@@H](O)[C@H](O)[C@@H]1O` [Compound 7, 2,6-Imino-2,6,7-trideoxy-L-glycero-D-mannohepitol], the “fucosidase inhibition, in words” value in series [2] is “did not diminish the inhibition of α-L-fucosidase”. Besides, in the series “pKa of inhibitors”, the pKa came out at 7.1. For the same molecule, at β-D-galactosidase, the inhibition at 1000 µM came to 27%. The results for the Ki in series [3] and in series [4] were 2e-08 M and 1.4e-07 M, respectively.

For `CC[C@@H]1N[C@H](CO)[C@@H](O)[C@H](O)[C@@H]1O` [Compound 8, β-1-C-Ethyl Deoxymannojirimycin], the Ki in [2] was 0.07 µM; in [3] it was 2e-06 M; in series [4] it was 5.8e-07 M. Further, the “fucosidase inhibition, in words” value in series [2] is given as “very powerful fucosidase inhibitor”. For the same molecule, the pKa in the series “pKa of inhibitors” was determined as 7.8. The “Other specificities (% inhibition at 1 mM): N-acetyl-β-D-hexosaminidase” value in [5] is 36%.

`OC[C@H]1N[C@@H](c2ccccc2)[C@@H](O)[C@@H](O)[C@@H]1O` [Compound 9, β-1-C-Phenyl Deoxymannojirimycin]: the Ki in series [2] was 1 µM; in series [3], 5.5e-06 M; in [4] it was 0.002 M. Besides, the “fucosidase inhibition, in words” value in series [2] was “more potent fucosidase inhibitor than is DMJ (10)”. In “pKa of inhibitors”, this molecule showed a pKa of 6.3. Further, the “Other specificities (% inhibition at 1 mM): N-acetyl-β-D-hexosaminidase” value in [5] came out at 50%.

In “pKa of inhibitors”, `OC[C@H]1NC[C@@H](O)[C@@H](O)[C@@H]1O` [Compound 10, deoxymannojirimycin] gave a pKa of 7.2. Also, the “inhibition of mannosidase activity, in words” value against α-D-mannosidase is reported as “showed any inhibition of mannosidase activity”. Also, the inhibition at 1000 µM on α-D-mannosidase (read-out: Other specificities (% inhibition at 1 mM): α-D-mannosidase, human liver extract, 1 mM compound) came to 64%.

As for `C[C@H]1[C@@H](O)[C@@H](O)[C@H](O)CN1C` [MeFDJ, reference compound], affinity in [2] was put at a Ki of 0.05 µM. The molecule also registered a pKa in “pKa of inhibitors” of 7.8. In addition, in series [5], the “Other specificities (% inhibition at 1 mM): N-acetyl-β-D-hexosaminidase” value is 59%.
